Data: patent US8546440B2, “Substituted bicyclic imidazole derivatives as gamma secretase modulators” (Janssen Pharmaceuticals, Inc., priority 2008, dated 2013)
pIC50: −log10 of the molar value.

How the values were obtained:
Aβtotal = assay: Screening for γ-secretase-modulating activity, Method 1: Aβtotal sandwich ELISA in supernatant of SKNBE2 cells carrying APP 695 wild type (Tables 12a, 12b); type: cell-based
Experimental: (§1) Screening was carried out using SKNBE2 cells carrying the APP 695—wild type, grown in Dulbecco's Modified Eagle's Medium/Nutrient mixture F-12 (DMEM/NUT-mix F-12) (HAM) provided by Gibco (cat no. 31330-38) containing 5% Serum/Fe supplemented with 1% non-essential amino acids. Cells were grown to near confluency.
(§2) The screening was performed using the assay as described in Citron et al (1997) Nature Medicine 3: 67. Briefly, cells were plated in a 96-well plate at about 10^5 cells/ml one day prior to addition of compounds. Compounds were added to the cells in Ultraculture (Lonza, BE12-725F) supplemented with 1% glutamine (Invitrogen, 25030-024) for 18 hours. The media were assayed by two sandwich ELISAs, for Aβ42 and Aβtotal. Toxicity of the compounds was assayed by WST-1 cell proliferation reagent (Roche, 1 644 807) according to the manufacturer's protocol.
To quantify the amount of Aβtotal in the cell supernatant, samples and standards were added to a 6E10-coated plate. The plate was allowed to incubate overnight at 4° C. in order to allow formation of the antibody-amyloid complex. Following this incubation and subsequent wash steps a selective anti-Aβ-antibody conjugate (biotinylated 4G8) was added and incubated for a minimum of 1 hour in order to allow formation of the antibody-Amyloid-antibody-complex. After incubation and appropriate wash steps, a Streptavidine-Peroxidase-Conjugate was added, followed 30 minutes later by an addition of Quanta Blu fluorogenic peroxidase substrate according to the manufacturer's instructions (Pierce Corp., Rockford, Ill.).
(§3) To obtain the values reported in Table 12a, the sigmoidal dose response curves were analysed by computerised curve-fitting, with percent of inhibition plotted against compound concentration. A 4-parameter equation (model 205) in XLfit was used to determine the IC50. The top and the bottom of the curve were fixed to 100 and 0, respectively, and the hill slope was fixed to 1. The IC50 represents the concentration of a compound that is required for inhibiting a biological effect by 50% (Here, it is the concentration where Aβ peptide level is reduced by 50%).
(§4) To obtain the values reported in Table 12b, the data are calculated as percentage of the maximum amount of amyloid Beta 42 measured in the absence of the test compound. The sigmoidal dose response curves were analyzed using non-linear regression analysis with percentage of the control plotted against the log concentration of the compound. A 4-parameter equation was used to determine the IC50. The values reported in Table 12b are averaged IC50 values.

Aβ42 = assay: Screening for γ-secretase-modulating activity, Method 1: Aβ42 sandwich ELISA in supernatant of SKNBE2 cells carrying APP 695 wild type (Tables 12a, 12b); type: cell-based
Experimental: as §1, §2
To quantify the amount of Aβ42 in the cell supernatant, commercially available Enzyme-Linked-Immunosorbent-Assay (ELISA) kits were used (Innotest® β-Amyloid(1-42), Innogenetics N.V., Ghent, Belgium). The Aβ42 ELISA was performed essentially according to the manufacturer's protocol. Briefly, the standards (dilutions of synthetic Aβ1-42) were prepared in polypropylene Eppendorf with final concentrations of 8000 down to 3.9 pg/ml (1/2 dilution step). Samples, standards and blanks (100 μl) were added to the anti-Aβ42-coated plate supplied with the kit (the capture antibody selectively recognizes the C-terminal end of the antigen). The plate was allowed to incubate 3 h at 25° C. in order to allow formation of the antibody-amyloid complex. Following this incubation and subsequent wash steps a selective anti-Aβ-antibody conjugate (biotinylated 3D6) was added and incubated for a minimum of 1 hour in order to allow formation of the antibody-Amyloid-antibody-complex. After incubation and appropriate wash steps, a Streptavidine-Peroxidase-Conjugate was added, followed 30 minutes later by an addition of 3,3′,5,5′-tetramethylbenzidine (TMB)/peroxide mixture, resulting in the conversion of the substrate into a coloured product. This reaction was stopped by the addition of sulfuric acid (0.9 N) and the colour intensity was measured by means of photometry with an ELISA-reader with a 450 nm filter.
as §3, §4

[1] = Homo sapiens, Method 1, Table 12a, SKNBE2 cells carrying APP 695 wild type, compounds 18 hours, ELISA, curve top and bottom fixed to 100 and 0, hill slope 1
[2] = Homo sapiens, Table 12b, Method 1, SKNBE2 cells carrying APP 695 wild type, cell supernatant ELISA, averaged IC50 values
[3] = Homo sapiens, Table 12b, Method 1, SKNBE2 cells carrying APP 695 wild type, cell supernatant ELISA, averaged IC50 values, percentage of control vs log concentration
[4] = Method 1, Table 12a, SKNBE2 cells carrying APP 695 wild type, compounds 18 hours, ELISA, curve top and bottom fixed to 100 and 0, hill slope 1
[5] = Table 12b, Method 1, SKNBE2 cells carrying APP 695 wild type, cell supernatant ELISA, averaged IC50 values
[6] = Table 12b, Method 1, SKNBE2 cells carrying APP 695 wild type, cell supernatant ELISA, averaged IC50 values, percentage of control vs log concentration

| SMILES | pIC50 (Aβtotal; [1]) | pIC50 (Aβtotal; [2]) | pIC50 (Aβ42; [1]) | pIC50 (Aβ42; [3]) | pIC50 (Aβtotal; [4]) | pIC50 (Aβtotal; [5]) | pIC50 (Aβ42; [4]) | pIC50 (Aβ42; [6]) |
| --- | --- | --- | --- | --- | --- | --- | --- | --- |
| COc1cc(Nc2cccn3cc(-c4ccc(F)cc4)nc23)ccc1-n1cnc(C)n1 [Compound 6] | < 5.00 | < 5.00 | 6.62 | 6.58 | – | – | – | – |
| COc1cc(Nc2cccn3cc(C(C)(C)C)nc23)ccc1-n1cnc(C)c1 [Compound 9] | < 5.00 | < 5.00 | 6.42 | 6.55 | – | – | – | – |
| CCCCc1nc2c(Nc3ccc(-n4cnc(C)c4)c(OC)c3)cccn2c1CCC [Compound 11] | – | – | – | – | < 5.52 | < 5.52 | 7.41 | 7.46 |
| COc1cc(Nc2cccn3cc(-c4ccccc4)nc23)ccc1-n1cnc(C)c1 [Compound 12] | < 5.52 | < 5.52 | 7.19 | 7.26 | – | – | – | – |
| COc1cc(Nc2cccn3c(-c4ccccc4)c(-c4ccccc4)nc23)ccc1-n1cnc(C)c1 [Compound 13] | < 5.52 | < 5.52 | 7.05 | 7.06 | – | – | – | – |
| COc1cc(Nc2cccn3cc(-c4ccccc4Cl)nc23)ccc1-n1cnc(C)c1 [Compound 14] | < 5.52 | < 5.52 | 7.24 | 7.39 | – | – | – | – |
| COc1cc(Nc2cccn3cc(-c4cccc(Cl)c4)nc23)ccc1-n1cnc(C)c1 [Compound 16] | < 5.52 | < 5.52 | 7.24 | 7.31 | – | – | – | – |
| COc1cc(Nc2cccn3cc(-c4ccc(Cl)cc4)nc23)ccc1-n1cnc(C)c1 [Compound 17] | < 5.52 | < 5.52 | 7.10 | 7.15 | – | – | – | – |
| COc1cc(Nc2cccn3cc(-c4cccc(F)c4)nc23)ccc1-n1cnc(C)c1 [Compound 19] | < 5.52 | < 5.52 | 7.23 | 7.25 | – | – | – | – |
| COc1cc(Nc2cccn3cc(-c4ccc(F)cc4)nc23)ccc1-n1cc(C)nc1C [Compound 20] | – | 5.24 | – | 6.06 | – | – | – | – |
| COc1cc(Nc2cccn3cc(-c4ccc(F)cc4)nc23)ccc1-n1ccnc1C [Compound 21] | < 5.30 | < 5.30 | 6.58 | 6.69 | – | – | – | – |
| COc1cc(Nc2cccn3c(Br)c(-c4ccc(F)cc4)nc23)ccc1-n1cnc(C)c1 [Compound 22] | < 5.52 | < 5.52 | 6.95 | 6.95 | – | – | – | – |
| CCc1c(-c2ccc(F)cc2)nc2c(Nc3ccc(-n4cnc(C)c4)c(OC)c3)cccn12 [Compound 23] | – | – | – | – | < 5.52 | < 5.52 | 7.60 | 7.66 |
| CCCc1c(-c2ccc(F)cc2)nc2c(Nc3ccc(-n4cnc(C)c4)c(OC)c3)cccn12 [Compound 24] | – | – | – | – | < 6.00 | < 5.00 | 7.62 | 7.70 |
| COc1cc(Nc2cccn3cc(-c4ccc(F)cc4F)nc23)ccc1-n1cnc(C)c1 [Compound 25] | < 5.00 | < 5.00 | 6.60 | 6.62 | – | – | – | – |
| COc1cc(Nc2cccn3cc(COc4ccc(F)cc4)nc23)ccc1-n1cnc(C)c1 [Compound 28] | < 6.00 | < 5.52 | 7.70 | 7.74 | – | – | – | – |
| COc1cc(Nc2cccn3cc(-c4ccc(C(F)(F)F)cc4)nc23)ccc1-n1cnc(C)c1 [Compound 30] | < 5.52 | < 5.52 | 7.24 | 7.35 | – | – | – | – |
| COc1ccc(-c2cn3cccc(Nc4ccc(-n5cnc(C)c5)c(OC)c4)c3n2)cc1 [Compound 36] | < 5.52 | < 5.52 | 7.19 | 7.22 | – | – | – | – |
| COc1ccc(-c2cn3cccc(Nc4ccc(-n5cnc(C)c5)c(OC)c4)c3n2)c(OC)c1 [Compound 37] | < 5.00 | < 5.00 | 6.72 | 6.76 | – | – | – | – |

| SMILES | pIC50 (Aβtotal; [1]) | pIC50 (Aβtotal; [2]) | pIC50 (Aβ42; [1]) | pIC50 (Aβ42; [3]) | pIC50 (Aβtotal; [4]) | pIC50 (Aβtotal; [5]) | pIC50 (Aβ42; [4]) | pIC50 (Aβ42; [6]) |
| --- | --- | --- | --- | --- | --- | --- | --- | --- |
| COc1cc(Nc2cccn3cc(-c4ccccn4)nc23)ccc1-n1cnc(C)c1 [Compound 41] | 5.07 | 5.13 | 6.46 | 6.44 | – | – | – | – |
| COc1cc(Nc2cccn3cc(-c4cccnc4)nc23)ccc1-n1cnc(C)c1 [Compound 42] | < 5.00 | < 5.00 | 6.37 | 6.37 | – | – | – | – |
| COc1cc(Nc2cccn3cc(-c4ccncc4)nc23)ccc1-n1cnc(C)c1 [Compound 43] | – | < 5.52 | – | < 5.52 | – | – | – | – |
| COc1cc(Nc2cccn3cc(-c4ccc5ncn(C)c5c4)nc23)ccc1-n1cnc(C)c1 [Compound 44] | – | < 5.52 | – | 6.21 | – | – | – | – |
| COc1cc(Nc2cccn3cc(-c4ccc(F)cc4)nc23)ccc1-n1ncnc1C [Compound 45] | < 5.30 | < 5.30 | 6.63 | 6.70 | – | – | – | – |
| COc1cccc(-c2nc3c(Nc4cnc(-n5cnc(C)c5)nc4)cccn3c2C)c1 [Compound 46] | – | – | – | – | < 5.52 | < 5.52 | 7.28 | 7.30 |
| COc1cc(Nc2cccn3cc(-c4ccccc4C(F)(F)F)nc23)ccc1-n1cnc(C)c1 [Compound 47] | < 5.52 | < 5.52 | 7.51 | 7.51 | – | – | – | – |
| COc1cc(Nc2cccn3cc(-c4cccc(C(F)(F)F)c4)nc23)ccc1-n1cnc(C)c1 [Compound 48] | < 5.52 | < 5.52 | 7.22 | 7.28 | – | – | – | – |
| COc1cc(Nc2cccn3ccnc23)ccc1-n1cnc(C)c1 [Compound 49] | 5.00 | < 5.00 | 6.52 | 6.39 | – | – | – | – |
| CCCCc1cn2cccc(Nc3ccc(-n4cnc(C)c4)c(OC)c3)c2n1 [Compound 51] | – | – | – | – | < 5.52 | < 5.52 | 7.41 | 7.42 |
| COc1cc(Nc2cccn3c(Cl)c(CC4CCCCC4)nc23)ccc1-n1cnc(C)c1 [Compound 53] | – | < 5.52 | – | 7.57 | – | – | – | – |
| COc1cc(Nc2cccn3cc(COC(C)C)nc23)ccc1-n1cnc(C)c1 [Compound 54] | < 5.52 | < 5.52 | 7.15 | 7.17 | – | – | – | – |
| COc1cc(Nc2cccn3cc(CN4CCCCC4)nc23)ccc1-n1cnc(C)c1 [Compound 55] | – | – | – | – | – | < 5.52 | – | 5.89 |
| COc1cc(Nc2cccn3cc(CN4CCOCC4)nc23)ccc1-n1cnc(C)c1 [Compound 56] | < 5.00 | < 5.00 | 6.22 | 6.69 | – | – | – | – |
| COc1cc(Nc2cccn3c(I)c(-c4ccc(F)cc4)nc23)ccc1-n1cnc(C)c1 [Compound 57] | < 6.00 | < 5.52 | 7.24 | 7.29 | – | – | – | – |
| COc1cc(Nc2cccn3c(C#N)c(-c4ccc(F)cc4)nc23)ccc1-n1cnc(C)c1 [Compound 58] | – | < 5.52 | – | > 6.96 | – | – | – | – |
| CCCCCCc1cnc2c(Nc3ccc(-n4cnc(C)c4)c(OC)c3)cccn12 [Compound 59] | – | – | – | – | < 5.52 | < 5.52 | 6.91 | 6.84 |
| COc1cc(Nc2cccn3c(-c4ccccc4-c4ccccc4)cnc23)ccc1-n1cnc(C)c1 [Compound 60] | – | < 5.52 | – | > 6.96 | – | – | – | – |
| COc1cccc(-c2nc3c(Nc4ccc(-n5cnc(C)c5)c(F)c4)cccn3c2C)c1 [Compound 66] | – | – | – | 7.12 | – | – | – | – |
